In patent US20110136844A1, “METHODS FOR INHIBITING DYRK1A TO TREAT CENTRAL NERVOUS SYSTEM DISEASES AND DISORDERS” (MediProPharma, Inc., priority 2009, published 2011):
Marks after values point to notes of the source that are not given here.

How the values were obtained:
[1] = Brain-plasma pharmacokinetics after single 10 mg/kg bolus i.v. injection in normal rats; format: in vivo, Sprague-Dawley rats; settings: rat, 10 mg/kg i.v., the data is the value of AUC(inf)
Experimental: (§1) (IV) Pharmacokinetic Studies
(§2) The pharmacokinetic studies in Sprague-Dawley rats were performed using the protocols developed by WuXi AppTec (St. Paul, Minn., USA, and Shanghai, China. http://www.apptecls.com/).
The brain exposure of the compound of Example 1 is about […] higher than that required for inhibition of DYRK1A, with a Kd and IC50 at about 1 uM, or 280 ng/mL.

[2] = Plasma pharmacokinetics after single dose in normal rats; format: in vivo, Sprague-Dawley rats; settings: rat plasma, i.v. 10 mg/kg
Experimental: as §1, §2

For `Cc1nc2c(c3c1[nH]c1ccccc13)C(=O)CC(C)(C)C2` [Example 1, 3,3,6-trimethyl-2,3,4,7-tetrahydroindolo[2,3-c]quinolin-1-one], the “AUC0-t of Plasma” value ([1]; time 8 h) was 2350^b ng · h/mL, the “AUC0-t of Plasma” value ([1]; time 24 h) was 2350^b ng · h/mL and the Co [2] was 4100 ng/mL.
